Assay results: ChEMBL document CHEMBL5241058, “Pyrazole-based analogs as potential antibacterial agents against methicillin-resistance staphylococcus aureus (MRSA) and its SAR elucidation” (Eur J Med Chem, 2021)
Converted amounts (≈) assume the structure as drawn.

What was measured:
Type in all cases: functional
Staphylococcus aureus [1] = assay: Antimicrobial activity against Methicillin-resistant Staphylococcus aureus assessed as bacterial growth inhibition
Staphylococcus aureus [2] = assay: Antimicrobial activity against Methicillin-resistant Staphylococcus aureus CCARM 3506 assessed as bacterial growth inhibition incubated for 24 hrs by ELISA assay
Staphylococcus aureus [3] = assay: Antimicrobial activity against Methicillin sensitive Staphylococcus aureus assessed as bacterial growth inhibition incubated for 18 hrs
Pseudomonas aeruginosa = assay: Antimicrobial activity against Pseudomonas aeruginosa ATCC 27853 assessed as bacterial growth inhibition incubated for 18 hrs by microdilution method
Klebsiella pneumoniae = assay: Antimicrobial activity against Klebsiella pneumoniae ATCC 314588 assessed as bacterial growth inhibition incubated for 18 hrs by microdilution method
[4] = test system: Salmonella enterica subsp. enterica; assay: Antimicrobial activity against Salmonella typhimurium […] assessed as bacterial growth inhibition incubated for 18 hrs by microdilution method
Escherichia coli = assay: Antimicrobial activity against Escherichia coli ATCC 8739 assessed as bacterial growth inhibition incubated for 18 hrs by microdilution method
Staphylococcus aureus [5] = assay: Antimicrobial activity against Staphylococcus aureus MTCC 442 assessed as bacterial growth inhibition incubated for 24 to 48 hrs; settings: time 24-48 hrs
Staphylococcus aureus [6] = assay: Antimicrobial activity against Staphylococcus aureus MTCC 96 assessed as bacterial growth inhibition incubated for 24 to 48 hrs; settings: time 24-48 hrs
Staphylococcus aureus [7] = assay: Antimicrobial activity against Methicillin-resistant Staphylococcus aureus ATCC 43300 assessed as bacterial growth inhibition by microdilution method
Staphylococcus aureus [8] = assay: Antimicrobial activity against Methicillin-resistant Staphylococcus aureus assessed as bacterial growth inhibition incubated for 24 to 48 hrs by microdilution method; settings: time 24-48 hrs
Staphylococcus aureus [9] = assay: Antimicrobial activity against vancomycin intermediate-resistant Staphylococcus aureus assessed as bacterial growth inhibition incubated for 24 hrs by microdilution method
Staphylococcus aureus [10] = assay: Antibiofilm activity against Methicillin-resistant Staphylococcus aureus USA 300 relative to control
Staphylococcus aureus [11] = assay: Antimicrobial activity against Methicillin-resistant Staphylococcus aureus ATCC 33599 assessed as bacterial growth inhibition
Staphylococcus aureus [12] = assay: Antimicrobial activity against Methicillin-resistant Staphylococcus aureus ATCC 3167 assessed as bacterial growth inhibition
Staphylococcus aureus [13] = assay: Antimicrobial activity against Methicillin-resistant Staphylococcus aureus ATCC 43300 assessed as bacterial growth inhibition incubated for 24 hrs by microdilution method; settings: ATCC43300

O=C1CN(c2nnc(-c3cccc([N+](=O)[O-])c3)s2)C(c2cn(-c3ccccc3)nc2-c2cccc([N+](=O)[O-])c2)S1 (stereo not given)
MBC (Staphylococcus aureus [1]): 312 µg/mL (≈ 547 µM)

Cc1nn(-c2ccc(Cl)cc2Cl)c(Oc2cccc(Cl)c2)c1C1N=C(N)NC(NCCc2ccccc2)=N1 (stereo not given)
MIC (Staphylococcus aureus [2]): 0.5 µg/mL (≈ 0.879 µM)

C[C@H]1COc2c(N3CCN(C)CC3)c(F)cc3c(=O)c(C(=O)O)cn1c23.C[C@H]1COc2c(N3CCN(C)CC3)c(F)cc3c(=O)c(C(=O)O)cn1c23.O [LEVOFLOXACIN]
MIC (Staphylococcus aureus [3]): 0.125 µg/mL

CC1(C)S[C@@H]2[C@H](NC(=O)Cc3ccccc3)C(=O)N2[C@H]1C(=O)O [PENICILLIN G]
MIC (Staphylococcus aureus [1]): 0.06 µg/mL (≈ 0.179 µM)

Clc1ccccc1-c1nn(-c2ccccc2)cc1-c1nc2ccccn2c1Cc1ccccc1
MIC (Pseudomonas aeruginosa): < 1 µg/mL
MIC (Klebsiella pneumoniae): < 1 µg/mL
MIC [4]: < 1 µg/mL
MIC (Escherichia coli): < 1 µg/mL

O=C(N[C@H](CO)[C@H](O)c1ccc([N+](=O)[O-])cc1)C(Cl)Cl [CHLORAMPHENICOL]
MIC (Staphylococcus aureus [5]): 50 µg/mL (≈ 155 µM)
MIC (Staphylococcus aureus [6]): 50 µg/mL (≈ 155 µM)
MIC (Staphylococcus aureus [7]): 50 µg/mL

Cc1nn(-c2ccc(Cl)cc2Cl)c(Oc2ccc3ccccc3c2)c1C1N=C(N)NC(NCCc2ccccc2)=N1 (stereo not given)
MIC (Staphylococcus aureus [2]): 0.5 µg/mL (≈ 0.855 µM)

Cc1ccc(C(=O)Nc2c(C(N)=O)cnn2-c2ccc([N+](=O)[O-])cc2[N+](=O)[O-])cc1
MIC (Staphylococcus aureus [8]): 42 µg/mL (≈ 102 µM)

NC(=O)c1cnn(-c2ccc([N+](=O)[O-])cc2[N+](=O)[O-])c1NC(=O)c1ccccc1
MIC (Staphylococcus aureus [8]): 75.3 µg/mL (≈ 190 µM)

O=C1S/C(=C\c2cn(-c3ccccc3)nc2-c2ccc(Cl)cc2)C(=O)N1CCCn1ccc2ccccc21
MIC (Staphylococcus aureus [7]): > 50 µg/mL

Cc1ccc(Oc2c(C3N=C(N)NC(NCCc4ccccc4)=N3)c(C)nn2-c2ccc(Cl)cc2Cl)cc1 (stereo not given)
MIC (Staphylococcus aureus [2]): 0.5 µg/mL (≈ 0.912 µM)

CN[C@H](CC(C)C)C(=O)N[C@H]1C(=O)N[C@@H](CC(N)=O)C(=O)N[C@H]2C(=O)N[C@H]3C(=O)N[C@H](C(=O)N[C@H](C(=O)O)c4cc(O)cc(O)c4-c4cc3ccc4O)[C@H](O)c3ccc(c(Cl)c3)Oc3cc2cc(c3O[C@@H]2O[C@H](CO)[C@@H](O)[C@H](O)[C@H]2O[C@H]2C[C@](C)(N)[C@H](O)[C@H](C)O2)Oc2ccc(cc2Cl)[C@H]1O [VANCOMYCIN]
MIC (Staphylococcus aureus [9]): < 0.125 µg/mL
Activity (Staphylococcus aureus [10]): 18%
MBC (Staphylococcus aureus [11]): 6.25 µg/mL (≈ 4.31 µM)
MIC (Staphylococcus aureus [11]): 3.12 µg/mL (≈ 2.16 µM)

O=C1S/C(=C\c2cn(-c3ccccc3)nc2-c2ccc([N+](=O)[O-])cc2)C(=O)N1CCCn1ccc2ccccc21
MIC (Staphylococcus aureus [7]): 12.5 µg/mL

Cc1nn(-c2ccc(Cl)cc2Cl)c(Oc2ccc(Cl)cc2)c1C1N=C(N)NC(NCCc2ccccc2)=N1 (stereo not given)
MIC (Staphylococcus aureus [2]): 0.5 µg/mL (≈ 0.879 µM)

C/C(=N/NC(=N)N)c1cnn(-c2ccc(C#Cc3ccccc3)cc2)c1C
Activity (Staphylococcus aureus [10]): 20%

Cc1nn(-c2ccc(Cl)cc2Cl)c(Oc2cccc(Br)c2)c1C1N=C(N)NC(NCCc2ccccc2)=N1 (stereo not given)
MIC (Staphylococcus aureus [2]): 0.5 µg/mL (≈ 0.815 µM)

Cc1cc(O)c(C(=O)c2cc(C(F)(F)F)n[nH]2)cc1Cl
MIC (Staphylococcus aureus [9]): < 0.125 µg/mL

COc1cc(/C=C/c2cc(/C=C/c3ccc(OCC(=O)N[C@@H](C)c4ccccc4)c(OC)c3)[nH]n2)ccc1OCC(=O)N[C@@H](C)c1ccccc1
MIC (Staphylococcus aureus [12]): 10 µM (≈ 6.87 µg/mL)

CCCCn1ncc2c3c(C#N)c4ccccc4nc3ccc21
MIC (Staphylococcus aureus [1]): 2 µg/mL (≈ 6.66 µM)

Cc1onc(-c2ccccc2Cl)c1C(=O)N[C@@H]1C(=O)N2[C@@H]1SC(C)(C)[C@@H]2C(=O)O [CLOXACILLIN]
MIC (Staphylococcus aureus [8]): 94 µg/mL (≈ 216 µM)

COc1cccc(-c2nn(-c3ccccc3)cc2-c2nc3ccccn3c2Cc2ccccc2)c1OC
MIC (Pseudomonas aeruginosa): < 1 µg/mL
MIC (Klebsiella pneumoniae): < 1 µg/mL
MIC [4]: < 1 µg/mL
MIC (Escherichia coli): < 1 µg/mL

Cc1cc(NS(=O)(=O)c2ccc(N)cc2)no1 [SULFAMETHOXAZOLE]
MIC (Staphylococcus aureus [1]): 16 µg/mL (≈ 63.2 µM)

CCn1ncc2c3c(C#N)c4ccc(Br)cc4nc3ccc21
MIC (Staphylococcus aureus [1]): 2 µg/mL (≈ 5.69 µM)

COc1cc(Cc2cnc(N)nc2N)cc(OC)c1OC [TRIMETHOPRIM]
MIC (Staphylococcus aureus [2]): 4 µg/mL (≈ 13.8 µM)

Cc1nn(-c2ccc(Cl)cc2)c2c1C(C(=O)O)CC=C(C(=O)O)N2 (stereo not given)
MIC (Staphylococcus aureus [13]): > 500 µg/mL

O=C(c1cc(C(F)(F)F)n[nH]1)c1cc(Br)ccc1O
MIC (Staphylococcus aureus [9]): < 0.125 µg/mL

Cn1ncc2c3c(C#N)c4ccccc4nc3ccc21
MIC (Staphylococcus aureus [1]): 6 µg/mL (≈ 23.2 µM)

CCCC#Cc1ccc(-n2ncc(/C(C)=N\NC(=N)N)c2C)cc1
Activity (Staphylococcus aureus [10]): 74%

Cc1ccc(O)c(C(=O)c2cc(C(F)(F)F)n[nH]2)c1
MIC (Staphylococcus aureus [9]): < 0.125 µg/mL

NC(=O)c1cnn(-c2ccc([N+](=O)[O-])cc2[N+](=O)[O-])c1NC(=O)c1ccc([N+](=O)[O-])cc1
MIC (Staphylococcus aureus [8]): 4 µg/mL (≈ 9.06 µM)

COc1cc(/C=C/c2cc(/C=C/c3ccc(OCC(=O)NC45CC6CC(CC4C6)C5)c(OC)c3)[nH]n2)ccc1OCC(=O)NC12CC3CC(CC1C3)C2
MIC (Staphylococcus aureus [12]): 10 µM (≈ 7.19 µg/mL)

O=C(c1cc(C(F)(F)F)n[nH]1)c1cc(Cl)ccc1O
MIC (Staphylococcus aureus [9]): < 0.125 µg/mL

COc1ccc(C(=O)Nc2c(C(N)=O)cnn2-c2ccc([N+](=O)[O-])cc2[N+](=O)[O-])cc1
MIC (Staphylococcus aureus [8]): 10 µg/mL (≈ 23.5 µM)

Cc1ccc(Oc2c(C3N=C(N)NC(NCCc4ccccc4)=N3)c(C)nn2-c2ccc(Cl)cc2Cl)c(C)c1 (stereo not given)
MIC (Staphylococcus aureus [2]): 0.5 µg/mL (≈ 0.889 µM)
